The source made the active and inactive calls. The calls are words filed in the database; no cut-off is given here.
Tests used:
[1] = molecular target: T1, Rap guanine nucleotide exchange factor 3 (Homo sapiens) (UniProt O95398); experiment: Binding affinity to human EPAC1 cAMP binding domain (149 to 318 residues) assessed as residue-dependent change in chemical shift at 100 uM using aggregate form of compound by [15N-1H]HSQC spectroscopic analysis
T1 sequence (whole entry): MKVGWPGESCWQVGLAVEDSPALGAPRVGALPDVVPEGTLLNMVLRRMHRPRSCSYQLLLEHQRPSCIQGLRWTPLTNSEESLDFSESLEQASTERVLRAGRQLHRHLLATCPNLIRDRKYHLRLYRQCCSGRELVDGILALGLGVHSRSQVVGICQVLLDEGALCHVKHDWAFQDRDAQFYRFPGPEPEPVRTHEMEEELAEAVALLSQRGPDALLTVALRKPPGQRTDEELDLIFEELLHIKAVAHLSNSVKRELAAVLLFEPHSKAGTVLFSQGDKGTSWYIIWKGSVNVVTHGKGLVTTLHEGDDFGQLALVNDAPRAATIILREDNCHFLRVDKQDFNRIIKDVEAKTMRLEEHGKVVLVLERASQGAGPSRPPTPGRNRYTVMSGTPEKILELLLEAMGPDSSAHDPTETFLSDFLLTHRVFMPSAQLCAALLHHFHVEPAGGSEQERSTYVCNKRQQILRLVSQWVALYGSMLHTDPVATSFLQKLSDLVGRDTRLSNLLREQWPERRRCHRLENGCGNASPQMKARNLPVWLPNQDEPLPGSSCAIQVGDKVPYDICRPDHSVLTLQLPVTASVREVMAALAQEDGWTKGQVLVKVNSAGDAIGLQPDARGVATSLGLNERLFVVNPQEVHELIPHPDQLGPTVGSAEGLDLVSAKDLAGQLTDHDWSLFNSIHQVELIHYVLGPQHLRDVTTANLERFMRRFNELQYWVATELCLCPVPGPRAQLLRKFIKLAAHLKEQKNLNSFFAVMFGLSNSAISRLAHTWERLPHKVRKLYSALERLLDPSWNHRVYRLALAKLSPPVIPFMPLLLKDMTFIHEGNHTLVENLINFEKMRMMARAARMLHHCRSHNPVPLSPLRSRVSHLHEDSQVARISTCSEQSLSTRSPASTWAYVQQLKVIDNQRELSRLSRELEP

[2] = molecular target: T2, Rap guanine nucleotide exchange factor 3 (Homo sapiens, UniProt O95398); experiment: Inhibition of 8-NBD-cAMP binding to human EPAC1 cAMP binding domain (149 to 318 residues) by fluorescence assay
T2 sequence (O95398 whole entry): T1 sequence (whole entry)

[3] = molecular target: T1, Rap guanine nucleotide exchange factor 3 (Homo sapiens); experiment: Binding affinity to human EPAC1 cAMP binding domain (149 to 318 residues) assessed as change in chemical shift at 100 uM in presence of human serum albumin by [15N-1H]HSQC spectroscopic analysis relative to compound alone
[4] = molecular target: T2, Rap guanine nucleotide exchange factor 3; experiment: Binding affinity to human EPAC1 cAMP binding domain (149 to 318 residues) using monomeric form of compound by [15N-1H]HSQC spectroscopic analysis

CC(C)(C)c1cc(C(=O)/C(C#N)=N/Nc2cccc(Cl)c2)no1
Activity [1]: Active
Kd [2]: 20 µM
Activity [3]: < 30%
Kd [4]: 20 µM
